Laboratory results as given in patent US20220017516A1, “LOX INHIBITORS” (THE INSTITUTE OF CANCER RESEARCH: ROYAL CANCER HOSPITAL, priority 2018, published 2022).
Where a chain is given by its changes, count along the chain named.

Tests used:
LOXL3 = target: T1, LOXL3 (Homo sapiens, UniProt P58215); assay: LOX isoform activity assay (ROS Glo), LOXL3; type: biochemical; conditions: 1 h incubation with enzyme
T1 construct: purchased R&D Systems/Bio-techne
T1 sequence (P58215 26-753): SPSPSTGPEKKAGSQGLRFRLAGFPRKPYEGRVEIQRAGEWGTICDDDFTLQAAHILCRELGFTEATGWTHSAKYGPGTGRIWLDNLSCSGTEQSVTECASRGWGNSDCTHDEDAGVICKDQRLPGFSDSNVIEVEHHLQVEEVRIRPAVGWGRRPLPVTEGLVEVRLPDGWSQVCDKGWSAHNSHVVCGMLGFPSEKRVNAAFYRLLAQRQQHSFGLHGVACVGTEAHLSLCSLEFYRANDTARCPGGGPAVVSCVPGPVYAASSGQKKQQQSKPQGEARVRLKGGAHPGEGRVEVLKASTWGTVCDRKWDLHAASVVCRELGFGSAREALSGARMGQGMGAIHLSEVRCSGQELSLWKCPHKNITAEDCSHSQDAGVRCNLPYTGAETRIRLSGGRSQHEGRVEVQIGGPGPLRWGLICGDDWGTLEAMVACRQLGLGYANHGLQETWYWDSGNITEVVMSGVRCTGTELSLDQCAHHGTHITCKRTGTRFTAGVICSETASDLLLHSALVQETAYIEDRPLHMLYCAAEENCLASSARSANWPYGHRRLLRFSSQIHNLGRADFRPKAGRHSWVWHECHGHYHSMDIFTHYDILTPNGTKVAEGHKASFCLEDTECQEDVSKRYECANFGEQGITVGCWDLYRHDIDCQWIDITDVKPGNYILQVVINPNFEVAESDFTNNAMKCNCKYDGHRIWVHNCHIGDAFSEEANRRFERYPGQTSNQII
Procedure: (§1) LOX was extracted from pig skin by previously described methods (Shackleton and Hulmes, 1990). LOXL2 and LOXL3 were obtained from R&D Systems/Bio-techne. The Promega ROS Glo assay kit (G8821) was used to assess enzyme activity. Overall, test compound was added to either 384 well assay plates (Greiner) using a Labcyte Echo™ Acoustic Handler or to 96 well plates for a final assay concentration of 100, 30, 10, 3, 1, 0.3, 0.1, 0.03, 0.01 and 0.003 μM final assay concentration. Enzymes were diluted according to specific pre-determined activity in assay buffer (100 mM CHES, pH 9, 0.05% (w/v) pluronic F-127, 0.5% (w/v) BSA, 1 mM MgCl2, 1 M urea, 100 mM NaCl) and added to the plate. For LOXL2, the mixture was incubated for 20 min, 1 h or 20 h; for LOX and LOXL3, incubation time was 1 h. Cadaverine and H2O2 substrate were then added to each well (final assay concentration 19.56 mM and 25 μM respectively) and the plates were incubated for 1.5 h (for LOX) or 1 h (for LOXL2 and LOXL3) at room temperature. Finally, luciferin detection reagent was added and plates were incubated for 20 min at room temperature, protected from light. Luminescence was measured using a BMG LABTECH PHERAstar FS reader and resulting IC50 values were calculated using GraphPad Prism software.

LOXL2 = target: T2, LOXL2 (Homo sapiens, UniProt Q9Y4K0); assay: LOX isoform activity assay (ROS Glo), LOXL2; type: biochemical; conditions: 1 hr incubation with enzyme; read-out: LOXL2 IC50 b) 1 hr
T2 construct: purchased R&D Systems/Bio-techne
T2 sequence (Q9Y4K0 26-774): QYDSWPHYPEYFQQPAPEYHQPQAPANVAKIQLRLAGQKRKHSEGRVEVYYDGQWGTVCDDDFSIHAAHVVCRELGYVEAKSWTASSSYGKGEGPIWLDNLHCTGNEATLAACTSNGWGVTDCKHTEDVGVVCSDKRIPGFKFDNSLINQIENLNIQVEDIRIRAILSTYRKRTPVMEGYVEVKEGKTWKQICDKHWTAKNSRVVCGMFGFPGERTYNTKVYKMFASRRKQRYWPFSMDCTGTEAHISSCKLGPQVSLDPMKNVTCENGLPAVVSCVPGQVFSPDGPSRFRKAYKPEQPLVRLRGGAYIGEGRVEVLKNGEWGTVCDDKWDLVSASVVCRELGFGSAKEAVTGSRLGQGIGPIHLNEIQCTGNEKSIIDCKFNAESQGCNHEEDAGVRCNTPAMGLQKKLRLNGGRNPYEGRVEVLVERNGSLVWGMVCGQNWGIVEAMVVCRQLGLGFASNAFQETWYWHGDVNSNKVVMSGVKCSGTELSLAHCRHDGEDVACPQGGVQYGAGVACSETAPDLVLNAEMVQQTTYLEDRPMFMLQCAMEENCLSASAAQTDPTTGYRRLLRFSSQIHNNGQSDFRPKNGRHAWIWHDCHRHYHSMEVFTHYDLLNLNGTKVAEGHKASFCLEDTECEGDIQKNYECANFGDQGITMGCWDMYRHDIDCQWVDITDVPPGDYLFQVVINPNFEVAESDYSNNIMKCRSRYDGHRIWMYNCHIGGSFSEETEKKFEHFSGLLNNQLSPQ
Procedure: as §1
In another setting, LOXL2 enzyme was diluted according to specific pre-determined activity in assay buffer (100 mM CHES, pH 9, 0.05% (w/v) pluronic F-127, 0.5% (w/v) BSA, 1 mM MgCl2, 1 M urea, 100 mM NaCl). Overall, 0.5 μl test compound was added to 40 μl assay buffer+LOXL2 at 100, 30, 10, 3, 1, 0.3, 0.1, 0.03, 0.01 and 0.003 μM (final concentration) in a 96-well white polystyrene, flat bottom plates (Fisher) and incubated for the indicated time at room temperature. 10 μl of assay buffer containing 97.8 mM cadaverine and 125 μM H2O2 substrate (final assay concentration 19.56 mM and 25 μM respectively) were added to each well and plates were incubated for 1 h at room temperature. Finally, 50 μl per well luciferin detection reagent was added and plates were incubated for 20 min at room temperature, protected from light. Luminescence was measured with an integration time of 500 ms per well using a SpectaMax M5 plate reader and resulting IC50 values were calculated using GraphPad Prism software.

LOX [1] = target: T3, LOX (Sus scrofa, UniProt P45845); assay: LOX isoform activity assay (ROS Glo), LOX; type: biochemical, pig; conditions: 1 h incubation with enzyme
T3 construct: LOX was extracted from pig skin by previously described methods; from tissue; host or cells: pig skin
T3 sequence (P45845 1-249): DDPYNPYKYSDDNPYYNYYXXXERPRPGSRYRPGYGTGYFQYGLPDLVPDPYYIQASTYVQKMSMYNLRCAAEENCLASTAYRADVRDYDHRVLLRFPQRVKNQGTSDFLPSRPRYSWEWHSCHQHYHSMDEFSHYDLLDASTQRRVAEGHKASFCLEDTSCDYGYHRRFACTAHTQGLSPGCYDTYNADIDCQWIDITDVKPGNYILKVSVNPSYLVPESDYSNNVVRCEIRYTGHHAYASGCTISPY
Procedure: as §1

LOX [2] = target: T4, LOX (Mus musculus, UniProt P28301); assay: LOX activity in cysts assay (roGFP2 LOX biosensor in MDCK cysts); type: cell-based; conditions: LOX, read-out: Cyst LOX @ 10 uM (% inhibition)
T4 construct: Full length LOX cDNA was then PCR cloned into pEGFP-N1 (Clonetech), or biosensor vector proGFP2—N1; expressed in transfected cells; host or cells: MDCK cells grown as cysts on Matrigel
T4 sequence (P28301 163-411): T3 sequence (P45845 1-249) with X20D, X21T, X22Y, Y31N, T80S, S142N, N188A, K202Q, S224T, E231D
Procedure: All cell lines used in this study were purchased from American Type Culture Collection (ATCC). Mycoplasma contamination was routinely monitored by PCR. Cells used were not found to be Mycoplasma positive. MDCK cell lines were cultured in Dulbecco's Modified Eagle Medium (DMEM) supplemented with 10% fetal bovine serum (FBS) and 1% Penicillin Streptomycin solution (Pen Strep). For GFP constructs transfection in MDCK cells, lipofectamine 3000 was used according to manufactures protocols. Cells were either selected with G418 (Life Technologies) at 5 mg/ml. All cell culture reagents were purchased from Life Technologies.
To produce MDCK cysts, cells were cultured on Matrigel (Corning) with 2% Matrigel supplemented in DMEM with 10% FBS. Cysts were allowed to form for 10 days before subsequent studies.
Mouse LOX cDNA was purchased from OriGene. Full length LOX cDNA was then PCR cloned into pEGFP-N1 (Clonetech), or biosensor vector proGFP2—N1 (Hanson, 2004) using the following primers, […] (forward primer) and […] (reverse primer). For the insertion into pEGFP-N1 or proGFP2—N1, Nhel and Xhol restriction sites were added to forward and reverse primers accordingly. Mutant LOX constructs were made using QuickChange II site-directed mutagenesis kit (Agilent Technologies) following manufacture's protocol using LOX-GFP as template. To generate, roGFP2 versions of LOX mutant constructs, LOX mutant cDNA was transferred from pEGFP-N1 to proGFP2—N1 using Nhel and Xhol.
All photomicrographs were taken with a Leica TCS SP8 X confocal system. For LOX biosensor imaging, live MDCK cysts were used. The oxidised biosensor was excited using a 405 nm laser, while the reduced biosensor was excited with a 488 nm laser. Emission of the biosensor was recorded at 500 nm-530 nm range using sequential scans. Ratio images were generated following a published protocol {Kardash, 2011 #376}. Note, while the published protocol generates YFP/CFP ratio images, we used it to generate Oxidised/Reduced (roGFP2 ratio) ratio images. The roGFP2 ratio at the basal surface of MDCK cysts was used to indicate LOX inhibition. LOX inhibitors were added 30 min prior to imaging.
For clarity, readout for DMSO treated cysts represents 0% inhibition (no inhibition) and readout for BAPN at 1 mM is used as 100% inhibition (full inhibition).

| SMILES | IC50 (LOXL3) | IC50 (LOXL2) | IC50 (LOX [1]) | inhibition at 10 µM (LOX [2]) |
| --- | --- | --- | --- | --- |
| NCCS(=O)(=O)C(F)C(=O)N1C[C@@H]2CN(c3c(F)c(F)c(F)c(F)c3F)C[C@@H]2C1 (stereo partly drawn) [Example 20, 2-((2-aminoethyl)-sulfonyl)-2-fluoro-1-(cis-5-(perfluoro-phenyl)hexahydro-pyrrolo[3,4-c]pyrrol-2(1H)-yl)ethan-1-one] | 340 nM | 240 nM | 2400 nM | – |
| NCCS(=O)(=O)C(F)C(=O)N1C[C@@H]2CN(c3ccc(Br)cc3)C[C@@H]2C1 (stereo partly drawn) [Example 19, 2-((2-Aminoethyl)-sulfonyl)-2-fluoro-1-(cis-5-(4-bromo-phenyl)hexahydro-pyrrolo[3,4-c]pyrrol-2(1H)-yl)ethan-1-one] | 220 nM | 150 nM | 660 nM | – |
| CCOc1ccc(N2C[C@H]3CN(C(=O)Nc4ccc(S(=O)(=O)CCN)cc4)C[C@@H]2C(C)(C)C3)cc1 [Example 37, (1S,5S)—N-(4-((2-aminoethyl)sulfonyl)phenyl)-6-(4-ethoxyphenyl)-9,9-dimethyl-3,6-diazabicyclo[3.2.2]nonane-3-carboxamide] | – | 20000 nM | 26000 nM | 78% |
| NCCS(=O)(=O)C(F)C(=O)N1C[C@@H]2CN(c3ccc(F)cc3)C[C@@H]2C1 (mixture of isomers) [Example 18] | 440 nM | 230 nM | 2300 nM | – |
